{"source": "PubChem BioAssay AID602482", "about": "(Sanford-Burnham Center for Chemical Genomics, 2012)", "test_system": "NTR1-U2OS viability, ATPLite luminescence, 24 h", "test": "U2OS cell viability loss by ATP – luminescence, ATPLite, cytotoxicity control for NTR1 agonist project, SAR follow-up (AID 602482)", "note": "Calls of active or inactive are those of the source.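 Rule for the calls: active = compounds whose mean concentration giving half-maximal cell killing is 20 µM or lower; inactive = the rest.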"}
{"smiles": "COc1cc2nc(C3CC3)nc(N3CCN(c4ccccc4OC)CC3)c2cc1OC", "values": [{"measurement": "IC50", "value": "25.4 µM (inactive)"}]}
{"smiles": "COc1cccc(OC)c1-c1nc(C(=O)N[C@@H](CC(C)C)C(=O)O)cn1-c1ccnc2cc(Cl)ccc12", "values": [{"measurement": "IC50", "value": "> 80 µM (inactive)"}]}
